Entries after “also recorded” stand apart in the source; their conditions may differ. Like-named read-outs stand apart in the source and are kept apart here.
Experiments:
[1] = test system: intraocular pressure (IOP); assay: Intraocular pressure (IOP) recovery model in rabbits after hypertonic saline (20% NaCl) infusion; type: in vivo, Albino rabbits; details: for potency in lowering intraocular pressure compared with timolol: FIGS. 1-5; for potency in lowering intraocular pressure compared with pilocarpine and timolol: in vivo
Experimental: Albino rabbits of either sex, weighing 2.25-2.5 kg were used for this intraocular pressure (IOP) recovery model experiment. Hypertonic saline (20% NaCl) was infused into the ear vein at a rate of 1 ml/min. for 10 minutes. The IOP was determined with Mackay-Marg electronic applanation tonometer (Berkeley Bio-Engineering, San Leandro, Calif.) at 0, 5, 10, 15, 20, 40, 60, 80, and every 30 minutes thereafter. The IOP decreased abruptly right after the infusion of hypertonic saline and recovered to normal in approximately 80-110 minutes. Identical experiments were repeated with the same group of animals one week later, wherein addition to the hypertonic saline infusion, haloperidol was instilled into the eyes in the form of 50 μl of an aqueous solution of 0.125 wt % haloperidol.
The procedure performed in Example 1 was carried out in the same manner, except that an aqueous solution of 0.25 wt % haloperidol was employed.
The procedure performed in Example 1 was carried out in the same manner, except that an aqueous solution of 0.25 wt % moperone was used.
The procedure performed in Example 1 was carried out in the same manner, except that an aqueous solution of 0.25 wt % trifluperidol was used.
The procedure performed in Example 1 was carried out in the same manner, except that an aqueous solution of 0.25 wt % L-timolol was used.
The procedure performed in Example 1 was carried out in the same manner, except that an aqueous solution of 0.25 wt % clofluperol was used.
The procedure performed in Example 1 was carried out in the same manner, except that an aqueous solution of 0.25 wt % floropipamide was used.
The procedure performed in Example 1 was carried out in the same manner, except that an aqueous solution of 0.25 wt % lenperone was used.
The procedure performed in Example 1 was carried out in the same manner with the following exceptions: (a) an Alcon electronic applanation tonometer (Alcon Laboratories, Inc., Ft. Worth, Tex.) was used to determine IOP; and (b) an aqueous solution of 0.25 wt % trifluoperazine was used.
The procedure performed in Example 10 was carried out in the same manner, except that an aqueous solution of 0.25 wt % chlorpromazine was used.
The procedure performed in Example 10 was carried out in the same manner, except that an aqueous solution of 0.5 wt % domperidone was used.

[2] = test system: aqueous humor formation and intraocular pressure; assay: Studies of ability to reduce aqueous humor formation and intraocular pressure in rabbits and cats; details: rabbit, in vivo
Source text: The dopamine antagonists of the present invention have been studied with respect to their ability to reduce aqueous humor formation and intraocular pressure in rabbits and cats. The studies indicate that the compounds are effective in reducing aqueous humor formation and intraocular pressure subsequent to topical and intracameral application.

intraocular pressure = details: cited from earlier work
[3] = Systemic absorption after topical instillation to the eye; type: in vivo; details: assuming not more than 10% of topically instilled drug absorbed systemically
[4] = test system: aqueous humor (AH) dynamics; assay: Cat eye model, aqueous humor (AH) dynamics (rates of AH formation and outflow, blue dextran); type: in vivo, cats; details: 50 μl of 0.5% eye drops
Experimental: The cat eye model was used for the study of haloperidol actions in aqueous humor (AH) dynamics. Briefly, cats of either sex weighing 2.5-4.0 kg were anesthetized with 30 mg/kg of pentobarbital sodium. Systemic blood pressure was monitored through cannulation at the femoral artery and additional pentobarbital was injected via femoral vein. Three needles were put into each eye. The first one was placed in the anterior chamber for the monitoring of IOP. The second one was placed at the posterior chamber for the infusion of AH-like solution containing 0.01% of blue dextran (NaCl, 137; KCl, 4.7; CaCl2, 1.53; MgCl2, 0.67; Na2 HPO4, 0.11 and dextrose, 5.56 mM). The rate of the infusion was adjusted to 38 μl/min. The third one was placed in the anterior chamber to serve as an overflow outlet. The overflown solution passed through a microspectrophotometric cell (ISCO, UA-5, Lincoln, Nebr.) for the detection of changes of blue dextran concentration and through a drop counter (ISCO, Model 328) for the recording of overflow rate.
Haloperidol (50 μl of 0.5% eye drops) was instilled to the eyes when the blue dextran tracings were stabilized (in about 2 hrs. after the initiation of the infusion). The rates of AH formation (rf) and outflow (ro) were calculated as follows: […]

[5] = background; cited from earlier work
[6] = background; cited from earlier work; remark: listed apart in the source
[7] = Oryctolagus cuniculus, topical, read-out: Difference in Max Reduction of IOP
[8] = rabbit, 0.25% drug, Alcon electronic applanation tonometer
[9] = rabbit, 0.25 wt % aqueous solution, Alcon tonometer
[10] = rabbit, 0.125% drug, Mackay-Marg tonometer, 50 μl eye instillation
[11] = rabbit, 0.25 wt % aqueous solution
[12] = Oryctolagus cuniculus, topical, rabbit, 0.25% drug, Mackay-Marg tonometer, 100% control IOP 20.2 ± 1.3 mm Hg, 20% saline alone 65 ± 1, read-out: Difference in Max Reduction of IOP
[13] = rabbit, 0.25% drug, Mackay-Marg tonometer, 50 μl eye instillation
[14] = rabbit, 0.25 wt % aqueous solution, Mackay-Marg tonometer

Q: For `CN(C)CCCN1c2ccccc2Sc2ccc(Cl)cc21` [Chlorpromazine], which response vs control in vivo at 0.25 % [1, 7] is on record?
A: 52 ± 3%

Q: And the “Time Delay for IOP Recovery Relative to Control” value [1, 8]?
A: 120 min

Q: And the “shift of the IOP recovery curve relative to the control curve” value [1, 9]?
A: indicates the ocular hypotensive action

Q: For `O=C(CCCN1CCC(O)(c2ccc(Cl)c(C(F)(F)F)c2)CC1)c1ccc(F)cc1` [Clofluperol], which “potency in lowering intraocular pressure compared with timolol” value [1] is on record?
A: at least equipotent to timolol

Q: And the response vs control in vivo at 0.125 % [1, 7]?
A: 59 ± 2%

Q: What about the “Time Delay for IOP Recovery Relative to Control” value [1, 10] of the same molecule?
A: 60 min

Q: And the “IOP recovery compared with L-timolol” value [1, 11]?
A: generally equivalent to that of L-timolol

Q: And the “reduction of aqueous humor formation and intraocular pressure” value (“reduction” for short) [2]?
A: reduce significantly

Q: With `CC(C)(C)NC[C@@H](O)COc1nsnc1N1CCOCC1` [D-timolol] as the molecule, how does the “intraocular pressure reducing response compared with S isomer” value (intraocular pressure; U.S. Pat. No. 4,521,414) read?
A: substantially equivalent to that of the S isomer

Q: What does the source list for `O=c1[nH]c2ccccc2n1CCCN1CCC(n2c(=O)[nH]c3cc(Cl)ccc32)CC1` [Domperidone]?
A: response vs control in vivo at 0.5 % [1, 7]: 56 ± 4%; Time Delay for IOP Recovery Relative to Control ([1]; rabbit, 0.5% drug, Alcon electronic applanation tonometer): 210 min; shift of the IOP recovery curve relative to the control curve ([1]; rabbit, 0.5 wt % aqueous solution, Alcon tonometer): indicates the ocular hypotensive action

Q: Which “potency in lowering intraocular pressure compared with timolol” value [1] does the source give for `NC(=O)C1(N2CCCCC2)CCN(CCCC(=O)c2ccc(F)cc2)CC1` [Floropipamide] here?
A: at least equipotent to timolol

Q: What about the response vs control in vivo at 0.25 % [1, 12] of the same molecule?
A: 60 ± 3%

Q: What about the “Time Delay for IOP Recovery Relative to Control” value [1, 13] of the same molecule?
A: 60 min

Q: And the “IOP recovery compared with L-timolol” value [1, 11]?
A: generally equivalent to that of L-timolol

Q: What about the “reduction” value [2] of the same molecule?
A: reduce significantly

Q: What does the source list for `O=C(CCCN1CCC(O)(c2ccc(Cl)cc2)CC1)c1ccc(F)cc1` [Haloperidol, 4-[4-(p-chlorophenyl)-4-hydroxypiperidino]-4'-fluorobutyrophenone]?
A: potency in lowering intraocular pressure compared with timolol [1]: more potency than timolol; response vs control in vivo at 0.125 % [1, 7]: 45 ± 2%; response vs control in vivo at 0.25 % [1, 7]: 46 ± 2%; Time Delay for IOP Recovery Relative to Control [1, 10]: 180 min; shift of the IOP recovery curve relative to the control curve ([1]; rabbit, 0.125 wt % aqueous solution): indicates the ocular hypotensive action; Time Delay for IOP Recovery Relative to Control [1, 13]: 270 min; shift of the IOP recovery curve relative to the control curve [1, 14]: indicates the ocular hypotensive action; potency in lowering intraocular pressure compared with pilocarpine and timolol ([1]; rabbit): more potent than pilocarpine and timolol; reduction of aqueous humor formation and intraocular pressure [2]: reduce significantly; anti-psychotic dosage level potentially absorbed as a result of glaucoma therapy [3]: 0.2% to 0.65; AH formation ([4]; following the initial outflow increase): decrease in aqueous humor formation; also recorded: decrease in AH formation; AH outflow ([4]; initial effect): initial increase in aqueous humor outflow; also recorded: initially caused an increase in AH outflow

Q: Which results are given for `O=C(CCCN1CCC(C(=O)c2ccc(F)cc2)CC1)c1ccc(F)cc1` [Lenperone]?
A: potency in lowering intraocular pressure compared with timolol [1]: at least equipotent to timolol; response vs control in vivo at 0.25 % [1, 12]: 61 ± 2%; Time Delay for IOP Recovery Relative to Control [1, 13]: 60 min; IOP recovery compared with L-timolol [1, 11]: generally equivalent to that of L-timolol; reduction of aqueous humor formation and intraocular pressure [2]: reduce significantly

Q: Which “potency in lowering intraocular pressure compared with timolol” value [1] does the source give for `Cc1ccc(C2(O)CCN(CCCC(=O)c3ccc(F)cc3)CC2)cc1` [Moperone] here?
A: more potency than timolol

Q: And the response vs control in vivo at 0.25 % [1, 12]?
A: 55 ± 1%

Q: What about the “Time Delay for IOP Recovery Relative to Control” value [1, 13] of the same molecule?
A: 180 min

Q: And the “shift of the IOP recovery curve relative to the control curve” value [1, 14]?
A: indicates the ocular hypotensive action

Q: What about the “potency in lowering intraocular pressure compared with pilocarpine and timolol” value ([1]; rabbit) of the same molecule?
A: more potent than pilocarpine and timolol

Q: And the “reduction” value [2]?
A: reduce significantly

Q: With `CC(C)(C)NC[C@H](O)COc1nsnc1N1CCOCC1` [Timolol, 1-tert-butyl-amino-3-[(4-morpholino-1,2,5-thiadiazol-3-yl)oxy]-2-propanol] as the molecule, how does the response vs control in vivo at 0.25 % [1, 12] read?
A: 62 ± 4%

Q: And the “Time Delay for IOP Recovery Relative to Control” value [1, 13]?
A: 60 min

Q: What about the local anesthetic action [5] of the same molecule?
A: lack of local anesthetic action

Q: And the tolerance [5]?
A: minimal tolerance

Q: What about the “systemic absorption after topical administration to the eye” value [6] of the same molecule?
A: a small portion is absorbed into the systemic circulation

Q: With `CN1CCN(CCCN2c3ccccc3Sc3ccc(C(F)(F)F)cc32)CC1` [Trifluoperazine] as the molecule, how does the response vs control in vivo at 0.25 % ([1]; Oryctolagus cuniculus, topical, rabbit, 0.25% drug, Alcon tonometer, 100% control IOP 20.2 ± 1.3 mm Hg, 20% saline alone 65 ± 1, read-out: Difference in Max Reduction of IOP) read?
A: 49 ± 4%

Q: What about the “Time Delay for IOP Recovery Relative to Control” value [1, 8] of the same molecule?
A: 150 min

Q: And the “shift of the IOP recovery curve relative to the control curve” value [1, 9]?
A: indicates the ocular hypotensive action

Q: Which “mechanism: effect on aqueous humor outflow and formation” value (intraocular pressure; comparison with haloperidol) does the source give for `CC[C@@H]1C(=O)OC[C@@H]1Cc1cncn1C` [pilocarpine] here?
A: increases aqueous humor outflow without affecting aqueous humor formation

— US4772616A, “Treatment of ocular hypertension and glaucoma with dopamine antagonists” (priority 1987, dated 1988)
